Assay results from paper PMC7927403, “Structure‐based identification of dual ligands at the A2AR and PDE10A with anti‐proliferative effects in lung cancer cell‐lines” (Journal of Cheminformatics, 2021).

What was measured:
A3R = biological target: T1, A3R (Homo sapiens, UniProt P0DMS8); assay: cAMP inhibition in CHO-K1-A3R cells co-stimulated with forskolin; format: cell-based
T1 construct: expressed in transfected cells
T1 sequence (P0DMS8 1-318): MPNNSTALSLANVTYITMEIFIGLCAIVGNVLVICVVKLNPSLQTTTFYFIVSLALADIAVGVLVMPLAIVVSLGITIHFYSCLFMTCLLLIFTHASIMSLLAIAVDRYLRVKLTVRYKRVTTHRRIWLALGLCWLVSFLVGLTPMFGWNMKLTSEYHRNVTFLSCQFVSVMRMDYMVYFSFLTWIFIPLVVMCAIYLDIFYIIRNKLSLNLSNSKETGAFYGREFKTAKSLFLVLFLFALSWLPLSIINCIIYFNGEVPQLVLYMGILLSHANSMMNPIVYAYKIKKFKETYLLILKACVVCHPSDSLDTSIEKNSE

H1792 cells [1] = assay: Proliferation assay (CCK-8) in H1792 cells; format: cell-based, human; details: for Imax anti-proliferative effect: H1792, 10 μM agonist relative to 1% DMSO treatment; for IC50: Homo sapiens, NCI-H1792, H1792, 72 hours, read-out: pIC50 anti-proliferative effect (converted)
Procedure: (§1) To test the effect of compounds 1–6 upon proliferation, various cell types were seeded onto clear 96-well plates at proper densities for each; CHO-K1 (2000 cells well^− 1), CHO-K1-A2AR (2000 cells well^− 1), H520 (2500 cells well^− 1), H1563 (2500 cells well^− 1), H1792 (2500 cells well^− 1), LK-2 (2500 cells well^− 1). This was done in suitable media, and they were cultured for 24 hours. After the subsequent addition of compounds 1–6 (ranging 316 nM − 100 µM), cells were allowed to grow further for 72 hours. Quantification of changes in cell number was done by adding 5 µl CCK-8 reagent to each well, accompanied by incubation at 37 °C for 1–3 hours. The determination of OD450 was done using a Mithras LB940 micro-plate reader at 450 nm.
(§2) Data analysis was performed using GraphPad Prism 8.2.1 (San Diegeo, CA). […] As for proliferation assays, the normalization of all data was done relative to the responses obtained upon treating cells with 1 % (v/v) DMSO. Subsequently, a three-parameter logistic equation was used for fitting each set of normalized data β-galactosidase or cAMP data, in order to calculate pEC50/pIC50 and Emax values. Also, the fitting of the proliferation data was done using a three-parameter logistic equation constraining the basal value to 100 and the system maximum to the IMax value obtained for compound 2, since it elicited the maximum inhibition of cellular proliferation in all cell types tested. A one-way ANOVA with Dunnett’s post-test, or Student’s t-test was used to assess the statistical significance for all assays, where p < 0.05 was considered to be significant.

CHO-K1 cells = assay: Proliferation assay (CCK-8) in CHO-K1 cells; format: cell-based; details: for IC50: Cricetulus griseus, CHO-K1, 72 hours, read-out: pIC50 anti-proliferative effect (converted)
Procedure: as §1, §2

CHO-K1-A2AR cells = assay: Proliferation assay (CCK-8) in CHO-K1-A2AR cells; format: cell-based; details: for IC50: read-out: pIC50 anti-proliferative effect (converted)
Procedure: as §1, §2

LK-2 cells [2] = assay: Proliferation assay (CCK-8) in LK-2 cells; format: cell-based, human; details: for IC50: Homo sapiens, LK-2, 72 hours, read-out: pIC50 anti-proliferative effect (converted)
Procedure: as §1, §2

LK-2 cells [3] = assay: cAMP accumulation in LK-2 cells; format: cell-based; details: Homo sapiens
Source text: (§3) Fig. 7 Lung squamous cell carcinoma and adenocarcinoma cells display increasing sensitivity to compounds 1, 3–5 in terms of proliferation, dependent upon combined A2AR and PDE10A expression. […] Data represented as a percentage of the cell number present after treatment with 1 % DMSO, ± SEM of 4–8 replicates. (B) Correlation plot for pEC50 of each compounds ability to stimulate cAMP production vs. its pIC50 for inhibiting proliferation. Data represented ± SEM. (C) Proliferation factor (pIC50 x span anti-proliferative Additional file 1: Table S5) calculated for 1, 3–6, CGS21680s and forskolin at LK-2, H520, H1792 and H1563 cells. Bars represent the mean Imax ± SEM, whilst individual data points are shown as a scatter plot.

H1792 cells [4] = assay: cAMP accumulation in H1792 cells; format: cell-based; details: Homo sapiens
Source text: as §3

H520 cells [5] = assay: cAMP accumulation in H520 cells; format: cell-based; details: Homo sapiens
Source text: as §3

H1563 cells [6] = assay: cAMP accumulation in H1563 cells; format: cell-based; details: Homo sapiens
Source text: as §3

PDE10A = biological target: T2, PDE10A (Homo sapiens, UniProt Q9Y233); assay: PDE10A inhibition assay (BPS Bioscience PDE10A assay kit); format: biochemical; details: concentration-response at PDE10A
T2 construct: purchased BPS Bioscience, San Diego, CA
Source text: 400 pg of purified PDE10A was used per reaction, and the plates were read using a TECAN infinite M200.

H520 cells [7] = assay: Proliferation assay (CCK-8) in H520 cells; format: cell-based, human; details: for Imax anti-proliferative effect: H520, 10 μM agonist relative to 1% DMSO treatment; for IC50: Homo sapiens, NCI-H520, H520, 72 hours, read-out: pIC50 anti-proliferative effect (converted)
Procedure: as §1, §2

H1563 cells [8] = assay: Proliferation assay (CCK-8) in H1563 cells; format: cell-based, human; details: for Imax anti-proliferative effect: H1563, 10 μM agonist relative to 1% DMSO treatment; for IC50: Homo sapiens, NCI-H1563, H1563, 72 hours, read-out: pIC50 anti-proliferative effect (converted)
Procedure: as §1, §2

A2AR = system: A2AR; set-up: method as in ChEMBL; details: confidence score equal to 9; ref ChEMBL; read-out: IC50 (A2AR antagonist); cited from earlier work
Nluc-A2AR = biological target: T3, Nluc-A2AR (Homo sapiens, UniProt P29274); assay: NanoBRET ligand binding assay, competition with CA200645 in HEK293T cells
T3 construct: expressed in transfected cells; host or cells: HEK293T
T3 sequence (P29274 whole entry): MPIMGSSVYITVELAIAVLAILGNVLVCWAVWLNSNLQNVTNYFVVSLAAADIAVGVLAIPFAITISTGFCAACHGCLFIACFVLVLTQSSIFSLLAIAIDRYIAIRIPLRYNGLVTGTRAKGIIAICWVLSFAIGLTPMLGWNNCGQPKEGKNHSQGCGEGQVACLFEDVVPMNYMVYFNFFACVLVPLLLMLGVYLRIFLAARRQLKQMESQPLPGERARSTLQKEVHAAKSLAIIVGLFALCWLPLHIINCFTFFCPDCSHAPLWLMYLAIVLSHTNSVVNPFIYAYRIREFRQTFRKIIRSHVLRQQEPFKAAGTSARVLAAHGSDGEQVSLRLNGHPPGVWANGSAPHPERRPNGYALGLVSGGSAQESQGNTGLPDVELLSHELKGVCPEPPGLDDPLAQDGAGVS
Source text: We sought to validate the docking studies by quantifying the affinity of each compound at the A2AR using a NanoBRET binding assay. In this experiment, we used N-terminally tagged A2AR with Nanoluciferase (Nluc) that will emit bioluminescence in close proximity with the fluorescent probe, CA200645, in the presence of Nluc substrate. Firstly, we determine the affinity constant of CA200645 in our expression system. […] We next extended our studies to use a classical competition binding assay ([43, 44]) where non-fluorescent ligands compete for binding at the Nluc-A2AR with CA200645. […] HEK293T cells were seeded in 6-well plates at density of 10^6 cells/well and grown overnight at 37 °C in DMEM/F12 medium supplemented with 10 % FBS and 1 % antibiotic/antimycotic. […]
For association-dissociation kinetic experiments, following furimazine incubation, 40 nM of CA200645 (purchased from Hello Bio, Bristol, UK) was added and the plate was immediately read. […] BRET signal was recorded for either 50 minutes or 20 minutes, for kinetic experiments or competition assay as appropriate, on a Mithras LB940 plate reader allowing sequential integration of signal detected from fluorescent probe CA200645 and Nluc. […] Ligand-induced ΔBRET was used to construct the association-dissociation kinetic of the fluorescence probe and competition binding curve of unlabelled ligands. […]

T2 sequence (Q9Y233 1-779 isoform Q9Y233-1): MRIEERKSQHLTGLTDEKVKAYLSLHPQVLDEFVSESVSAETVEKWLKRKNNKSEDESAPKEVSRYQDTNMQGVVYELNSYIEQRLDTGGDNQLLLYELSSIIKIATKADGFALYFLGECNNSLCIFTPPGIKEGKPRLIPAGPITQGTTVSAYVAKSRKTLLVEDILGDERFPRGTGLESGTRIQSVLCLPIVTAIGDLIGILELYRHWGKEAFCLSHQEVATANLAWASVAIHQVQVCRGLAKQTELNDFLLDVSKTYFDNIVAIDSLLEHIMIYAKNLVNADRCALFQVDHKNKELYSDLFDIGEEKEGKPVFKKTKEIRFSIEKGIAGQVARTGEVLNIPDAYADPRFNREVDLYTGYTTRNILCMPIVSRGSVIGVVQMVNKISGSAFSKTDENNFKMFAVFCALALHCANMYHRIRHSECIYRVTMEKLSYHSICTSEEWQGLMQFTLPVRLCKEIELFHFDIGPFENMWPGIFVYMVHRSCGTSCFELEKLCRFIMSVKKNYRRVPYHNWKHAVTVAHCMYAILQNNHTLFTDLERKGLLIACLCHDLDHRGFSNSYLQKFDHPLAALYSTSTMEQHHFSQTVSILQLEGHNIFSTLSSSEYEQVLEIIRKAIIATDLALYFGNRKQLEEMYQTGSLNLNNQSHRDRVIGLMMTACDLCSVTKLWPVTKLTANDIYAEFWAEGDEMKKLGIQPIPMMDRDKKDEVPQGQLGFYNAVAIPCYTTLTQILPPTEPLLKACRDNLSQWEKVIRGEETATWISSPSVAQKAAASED

## CCNC(=O)[C@H]1O[C@@H](n2cnc3c(N)nc(NCCc4ccc(CCC(=O)O)cc4)nc32)[C@H](O)[C@@H]1O [CGS21680]
A3R
  A3R functional activity: agonist activity
H1792 cells [1]
  Imax anti-proliferative effect: -4.07±1.6 %
  IC50: > 100 µM
CHO-K1 cells
  IC50: > 100 µM
CHO-K1-A2AR cells; CHO-K1-A2AR, 72 hours
  IC50: > 100 µM
CHO-K1-A2AR cells; CHO-K1 and CHO-K1-A2AR cells, 72 hours, CCK-8
  anti-proliferative effect: no anti-proliferative effects
LK-2 cells [2]
  IC50: > 100 µM
LK-2 cells [2]; LK-2, 10 μM agonist relative to 1% DMSO treatment
  Imax anti-proliferative effect: -3.55±2.6%
LK-2 cells [3]; 0.5 h, LK-2, 30 minutes, read-out: pEC50 cAMP accumulation (converted)
  EC50: 14.5 µM
LK-2 cells [3]; LK-2, percentage of 100 μM forskolin
  Emax: 7.64 ± 1.6%
H1792 cells [4]; NCI-H1792, 0.5 h, H1792, 30 minutes, read-out: pEC50 cAMP accumulation (converted)
  EC50: 3.02 µM
H1792 cells [4]; NCI-H1792, H1792, percentage of 100 μM forskolin
  Emax: 27.3 ± 2.1%
H520 cells [5]; NCI-H520, 0.5 h, H520, 30 minutes, read-out: pEC50 cAMP accumulation (converted)
  EC50: 3.31 µM
H520 cells [5]; NCI-H520, H520, percentage of 100 μM forskolin
  Emax: 20.8 ± 1%
H1563 cells [6]; NCI-H1563, 0.5 h, H1563, 30 minutes, read-out: pEC50 cAMP accumulation (converted)
  EC50: 4.57 µM
H1563 cells [6]; NCI-H1563, H1563, percentage of 100 μM forskolin
  Emax: 15.6 ± 1.6%
PDE10A
  activity at PDE10A: no significant activity
H520 cells [7]
  Imax anti-proliferative effect: 0.55±2.0 %
  IC50: > 100 µM
H1563 cells [8]
  Imax anti-proliferative effect: 18.87±1.8 %
  IC50: 214 µM

## COc1ccccc1Cn1cc2nc(-c3ccc(C)o3)nc(N)c2n1 [CHEMBL3799351]
A2AR
  IC50: 0.00435 µM

## C=C[C@@]1(C)CC(=O)[C@]2(O)[C@@]3(C)[C@@H](O)CCC(C)(C)[C@@H]3[C@H](O)[C@H](OC(C)=O)[C@@]2(C)O1 [Forskolin]
H1792 cells [1]
  Imax anti-proliferative effect: 25.9±1.0 %
  IC50: 186 µM
CHO-K1 cells; CHO-K1, 10 μM agonist relative to 1% DMSO treatment
  Imax anti-proliferative effect: 62.57±3.4
CHO-K1 cells
  IC50: 34.7 µM
CHO-K1-A2AR cells; CHO-K1-A2AR, 72 hours
  IC50: 37.2 µM
CHO-K1-A2AR cells; CHO-K1-A2AR, 10 μM agonist relative to 1% DMSO treatment
  Imax anti-proliferative effect: 58.96±2.2
CHO-K1-A2AR cells; Imax (CHO-K1-A2AR) - Imax (CHO-K1)
  Δ Imax: -3.61±4.1
CHO-K1-A2AR cells; pIC50(CHO-K1-A2AR) - pIC50(CHO-K1)
  Δ pIC50: -0.03±0.1
LK-2 cells [2]
  IC50: 324 µM
H520 cells [7]
  Imax anti-proliferative effect: 31.2±2.1 %
  IC50: 85.1 µM
H1563 cells [8]
  Imax anti-proliferative effect: 29.9±1.1 %
  IC50: 148 µM

## CC(C)NCC(O)c1ccc(O)c(O)c1 (stereo not shown) [isoprenaline]
Nluc-A2AR; competition with 300 nM CA200645
  displacement of CA200645: failed to displace CA200645

## CA200645
Nluc-A2AR; kinetic association then dissociation, 40 nM CA200645, HEK293 cells
  disassociation constant (KD) of CA200645 at the Nluc-A2AR: 0.065 µM
